Results as given in patent publication US10597368B2, “Syringolin analogues and methods of making and using same” (BROWN UNIVERSITY, priority 2015, dated 2020).

Biological target: T1, human 20S proteasome (hs20S), chymotrypsin-like β5-subunits (Homo sapiens, UniProt P20618+P28074)
T1 construct: purchased R&D
Assay: In vitro 20S peptidase inhibition kinetics, chymotrypsin-like activity (Suc-LLVY-AMC)
Assay type: biochemical
Settings: second-order rate constant, Suc-LLVY-AMC substrate, 37° C.
Experimental: In vitro 20S peptidase inhibition assays were recorded in a 384-well plate at a SpectraMax M5 (Molecular devises) plate-reader. Therefore, 5 nM human 20S (R&D) was incubated in buffer R (50 mM HEPES-KOH, pH 7.5, 0.5 mM EDTA) with 100 μM of the fluorogenic peptide substrates Suc-LLVY-AMC or Boc-LRR-AMC. Reactions were started by adding various amounts of inhibitors (5 nM to 500 μM) to a final volume of 30 μL and peptide hydrolysis was continuously monitored for 90 min by changes in fluorescence (excitation 380 nm; emission 440 nm) at 37° C. The kobs values were determined by fitting the raw data to equation (1). The slopes of the plots of kobsversus I gave an apparent value of kobs/I, also referred to as kinact/Ki for an irreversible inhibitor, which was then corrected by equation (2) to compensate for the effect of substrate competition, where app is the apparent value at different inhibitor concentrations.
Using purified human 20S proteasome (hs20S) and a fluorogenic substrate (Suc-LLVY-AMC), in vitro assays were performed to systematically assess proteasome inhibition by the syringolin analogues. The choice of substrate was based on the fact that it is preferentially acted upon by the chymotrypsin-like β5-subunits of the proteasome due to the aromatic tyrosine residue at the scissile bond (i.e., P1 position).
From measurements of the rates of hydrolysis of the fluorogenic substrate by the proteasome in the presence of increasing concentrations of each inhibitor, second-order rate constants kin/Ki (M^−1 s^−1) were determined (Table 1), which reflect both the affinity of the non-covalent binding (Ki) and the rate of the chemical reaction with the enzyme (kin). All of the syringolin analogues were capable in inhibiting the chymotrypsin-like activity of hs20S. Without wishing to be limited by any theory, consistent with the design predictions, the most significant contributor to the apparent second-order rate constants of the compounds was their binding affinity (Ki) rather than the rates of inhibition.
In vitro 20S peptidase inhibition assays were recorded in a 384-well plate at a SpectraMax M5 (Molecular Devices) plate-reader. Therefore, 5 nM human 20S (R&D) was incubated in buffer R (50 mM HEPEs-KOH, pH 7.5, 0.5 mM EDTA) with 100 μM of the fluorogenic peptide substrate Suc-LLVY-AMC. Reactions were started by adding various amounts of inhibitors 5 nM to 500 μM) to a final volume of 30 μL and peptide hydrolysis was continuously monitored for 90 minutes by changes in fluorescence (excitation 380 nm; emission 440 nm) at 37 degrees Celsius. The kobs values were determined by fitting the raw data to equation 1. The slopes of the plots of kobs versus I gave an apparent value of kob/I, also referred to as kinact/Ki for an irreversible inhibitor, which was then corrected by equation 2 to compensate for the effect of substrate competition, where app is the apparent value at different inhibitor concentrations.

For COC(=O)[C@@H](NC(=O)N[C@H](C(=O)N[C@H]1CCCCNC(=O)/C=C/[C@H](Cc2cccc(F)c2)NC1=O)C(C)C)C(C)C [Compound 6, (S)-methyl 2-(3-((S)-1-(((5S,8S,E)-5-(3-fluorobenzyl)-2,7-dioxo-1,6-diazacyclododec-3-en-8-yl)amino)-3-methyl-1-oxobutan-2-yl)ureido)-3-methylbutanoate], the “hs20S kin/Ki” value was 2,471 M^−1s^−1.
For COC(=O)[C@@H](NC(=O)N[C@H](C(=O)N[C@H]1CCCCNC(=O)/C=C/[C@H](Cc2cc(F)cc(F)c2)NC1=O)C(C)C)C(C)C [Compound 7, (S)-methyl 2-(3-((S)-1-(((5S,8S,E)-5-(3,5-difluorobenzyl)-2,7-dioxo-1,6-diazacyclododec-3-en-8-yl)amino)-3-methyl-1-oxobutan-2-yl)ureido)-3-methylbutanoate], the “hs20S kin/Ki” value was 1,579 M^−1s^−1.

COC(=O)[C@@H](NC(=O)N[C@@H](Cc1ccccc1Cl)C(=O)N[C@H]1CCCCNC(=O)/C=C/[C@H](Cc2ccccc2F)NC1=O)C(C)C [Compound 17, (S)-methyl 2-(3-((S)-3-(2-chlorophenyl)-1-((5S,8S,E)-5-(2-fluorobenzyl)-2,7-dioxo-1,6-diazacyclododec-3-en-8-ylamino)-1-oxopropan-2-yl)ureido)-3-methylbutanoate] and COC(=O)[C@@H](NC(=O)N[C@@H](Cc1ccccc1)C(=O)N[C@H]1CCCCNC(=O)/C=C/[C@H](Cc2ccccc2F)NC1=O)C(C)C [Compound 19, (S)-methyl 2-(3-((S)-1-((5S,8S,E)-5-(2-fluorobenzyl)-2,7-dioxo-1,6-diazacyclododec-3-en-8-ylamino)-1-oxo-3-phenylpropan-2-yl)ureido)-3-methylbutanoate] are within 1.5-fold of each other in “hs20S kin/Ki” value: 7271 M⁻¹ s⁻¹ for the first, 5877 M⁻¹ s⁻¹ for the second.

COC(=O)[C@@H](NC(=O)N[C@@H](Cc1cccc(Cl)c1)C(=O)N[C@H]1CCCCNC(=O)/C=C/[C@H](Cc2ccccc2F)NC1=O)C(C)C [Compound 18, (S)-methyl 2-(3-((S)-3-(3-chlorophenyl)-1-((5S,8S,E)-5-(2-fluorobenzyl)-2,7-dioxo-1,6-diazacyclododec-3-en-8-ylamino)-1-oxopropan-2-yl)ureido)-3-methylbutanoate] and COC(=O)[C@@H](NC(=O)N[C@@H](Cc1cccc(C)c1)C(=O)N[C@H]1CCCCNC(=O)/C=C/[C@H](Cc2ccccc2F)NC1=O)C(C)C [Compound 20, (S)-methyl 2-(3-((S)-1-((5S,8S,E)-5-(2-fluorobenzyl)-2,7-dioxo-1,6-diazacyclododec-3-en-8-ylamino)-1-oxo-3-m-tolylpropan-2-yl)ureido)-3-methylbutanoate] are within 1.5-fold of each other in “hs20S kin/Ki” value: 4656 M⁻¹ s⁻¹ for the first, 3797 M⁻¹ s⁻¹ for the second.

First: COC(=O)[C@@H](NC(=O)N[C@@H](Cc1ccc(C)cc1)C(=O)N[C@H]1CCCCNC(=O)/C=C/[C@H](Cc2ccccc2F)NC1=O)C(C)C [Compound 21, (S)-methyl 2-(3-((S)-1-((5S,8S,E)-5-(2-fluorobenzyl)-2,7-dioxo-1,6-diazacyclododec-3-en-8-ylamino)-1-oxo-3-p-tolylpropan-2-yl)ureido)-3-methylbutanoate]
Second: COC(=O)[C@@H](NC(=O)N[C@@H](Cc1ccc(C)cc1)C(=O)N[C@H]1CCCCNC(=O)/C=C/[C@H](Cc2cccc(F)c2)NC1=O)C(C)C [Compound 29, (S)-methyl 2-(3-((S)-1-((5S,8S,E)-S-(3-fluorobenzyl)-2,7-dioxo-1,6-diazacyclododec-3-en-8-ylamino)-1-oxo-3-p-tolylpropan-2 yl)ureido)-3-methylbutanoate]
The “hs20S kin/Ki” value of the first is 1.6-fold lower: 7332 M⁻¹ s⁻¹ for the first, 11670 M⁻¹ s⁻¹ for the second.

First: COC(=O)[C@@H](NC(=O)N[C@@H](Cc1cccc(F)c1)C(=O)N[C@H]1CCCCNC(=O)/C=C/[C@H](Cc2ccccc2F)NC1=O)C(C)C [Compound 23, (S)-methyl 2-(3-((S)-1-((5S,8S,E)-5-(2-fluorobenzyl)-2,7-dioxo-1,6-diazacyclododec-3-en-8-ylamino)-3-(3-fluorophenyl)-1-oxopropan-2-yl)ureido)-3-methylbutanoate]
Second: COC(=O)[C@@H](NC(=O)N[C@@H](Cc1ccccc1F)C(=O)N[C@H]1CCCCNC(=O)/C=C/[C@H](Cc2cccc(F)c2)NC1=O)C(C)C [Compound 30, (S)-methyl 2-(3-((S)-1-((5S,8S,E)-S-(3-fluorobenzyl)-2,7-dioxo-1,6-diazacyclododec-3-en-8-ylamino)-3-(2-fluorophenyl)-1-oxopropan-2 yl)ureido)-3-methylbutanoate]
The “hs20S kin/Ki” value of the first is 5.5-fold lower: 2199 M⁻¹ s⁻¹ for the first, 12202 M⁻¹ s⁻¹ for the second.

First: COC(=O)[C@@H](NC(=O)N[C@@H](Cc1ccccc1Cl)C(=O)N[C@H]1CCCCNC(=O)/C=C/[C@H](Cc2cccc(F)c2)NC1=O)C(C)C [Compound 24, (S)-methyl 2-(3-((S)-3-(2-chlorophenyl)-1-((5S,8S,E)-5-(3-fluorobenzyl)-2,7-dioxo-1,6-diazacyclododec-3-en-8-ylamino)-1-oxopropan-2-yl)ureido)-3-methylbutanoate]
Second: COC(=O)[C@@H](NC(=O)N[C@@H](Cc1ccccc1)C(=O)N[C@H]1CCCCNC(=O)/C=C/[C@H](Cc2cccc(F)c2)NC1=O)C(C)C [Compound 27]
The “hs20S kin/Ki” value of the first is 5.2-fold lower: 2749 M⁻¹ s⁻¹ for the first, 14336 M⁻¹ s⁻¹ for the second.

Compared with COC(=O)[C@@H](NC(=O)N[C@@H](Cc1cccc(Cl)c1)C(=O)N[C@H]1CCCCNC(=O)/C=C/[C@H](Cc2cccc(F)c2)NC1=O)C(C)C [Compound 25, (S)-methyl 2-(3-((S)-3-(3-chlorophenyl)-1-((5S,8S,E)-5-(3-fluorobenzyl)-2,7-dioxo-1,6-diazacyclododec-3-en-8-ylamino)-1-oxopropan-2-yl)ureido)-3-methylbutanoate], COC(=O)[C@@H](NC(=O)N[C@@H](Cc1cccc(C)c1)C(=O)N[C@H]1CCCCNC(=O)/C=C/[C@H](Cc2cccc(F)c2)NC1=O)C(C)C [Compound 28, (S)-methyl 2-(3-((S)-1-((5S,8S,E)-S-(3 fluorobenzyl)-2,7-dioxo-1,6-diazacyclododec-3-en-8-ylamino)-1-oxo-3-m-tolylpropan-2-yl)ureido)-3-methylbutanoate] is 1.5-fold higher in “hs20S kin/Ki” value: 8532 M⁻¹ s⁻¹ for the first, 12866 M⁻¹ s⁻¹ for the second.

Going from COC(=O)[C@@H](NC(=O)N[C@@H](Cc1ccc(Cl)cc1)C(=O)N[C@H]1CCCCNC(=O)/C=C/[C@H](Cc2cccc(F)c2)NC1=O)C(C)C [Compound 26, (S)-methyl 2-(3-((S)-3-(4-chlorophenyl)-1-((5S,8S,E)-5-(3-fluorobenzyl)-2,7-dioxo-1,6-diazacyclododec-3-en-8-ylamino)-1-oxopropan-2-yl)ureido)-3-methylbutanoate] to COC(=O)[C@@H](NC(=O)N[C@@H](Cc1cccc(F)c1)C(=O)N[C@H]1CCCCNC(=O)/C=C/[C@H](Cc2cccc(F)c2)NC1=O)C(C)C [Compound 31, (S)-methyl 2-(3-((S)-1-((5S,8S,E)-5-(3-fluorobenzyl)-2,7-dioxo-1,6-diazacyclododec-3-en-8-ylamino)-3-(3-fluorophenyl)-1-oxopropan-2-yl)ureido)-3-methylbutanoate], the “hs20S kin/Ki” value falls from 12605 M⁻¹ s⁻¹ to 5016 M⁻¹ s⁻¹ (2.5-fold).

COC(=O)[C@@H](NC(=O)N[C@@H](Cc1cccc(C(F)(F)F)c1)C(=O)N[C@H]1CCCCNC(=O)/C=C/[C@H](Cc2cccc(F)c2)NC1=O)C(C)C [Compound 32, (S)-methyl 2-(3-((S)-1-((5S,8S,E)-5-(3-fluorobenzyl)-2,7-dioxo-1,6-diazacyclododec-3-en-8-ylamino)-1-oxo-3-(3-(trifluoromethyl)phenyl)propan-2-yl)ureido)-3-methylbutanoate] was tested, and the “hs20S kin/Ki” value was 4531 M⁻¹ s⁻¹.
